Test results taken from US10214738B2, “Production of high purity chondroitinase ABC” (priority 2017, dated 2019).
“Also recorded” adds a separate entry of the source.

What was measured:
[1] = biological target: T1, chondroitinase ABC (ChABC) (Proteus vulgaris, UniProt P59807, L125P); experiment: incubation of ChABC alone with heparin (change in absorbance, enzymatic degradation); type: biochemical; conditions: ChABC incubated alone with heparin; no change in absorbance
From the text: Therefore, immobilization of heparin as a ligand for affinity purification of ChABC is the most suitable choice among the selected polysaccharide derivatives.

[2] = biological target: T1, chondroitinase ABC (ChABC); experiment: relative enzyme inhibition assay of ChABC by selected polysaccharide (chondroitin sulfate C substrate, absorbance at 232 nm); type: biochemical; conditions: for Activity (apparent ChABC activity in presence of selected polysaccharide) / % rA (percentage of residual activity): 0.2% chondroitin sulfate C, 0.2% selected polysaccharide, 50 mM pH8 Tris HCl, 37° C., 20 min; for Activity (apparent ChABC activity in presence of selected polysaccharide): reference without polysaccharide 121 U/L; for % rA (percentage of residual activity): relative to assay without polysaccharide; for effect on ChABC enzyme activity (in words): equal amount of substrate (chondroitin sulfate C) and polysaccharide
From the text: There are several existing methods for quantitative study of protein-small molecule interactions such as differential scanning calorimetry, quartz crystal microbalance, fluorescence anisotropy, and the like. However, these methods require complex equipment, are expensive and time consuming, requiring protein immobilization or protein labeling. In order to save time and reduce costs, semi-quantitative assessment methods can be applied, such as enzyme inhibition assays. In the present invention, the relative binding affinity is evaluated by monitoring the inhibition of ChABC by the selected polysaccharide. The stronger the observed inhibitory effect, the higher the affinity between the ChABC and the polysaccharide. A more detailed experimental setup is shown in Example 1. […] Thus, heparin was identified as the most suitable ligand among the selected screened polysaccharides for constructing the affinity column.
In the present invention, it is necessary to identify molecules that have a similar structure to the substrate of ChABC but are inert to enzymatic degradation. In order to test polysaccharides that could actually bind to the active site of ChABC, a relative enzyme inhibition assay was conducted on the selected polysaccharide:
490 μL of the substrate solution was incubated at 37° C. for at least 15 minutes containing 0.2% chondroitin sulfate C, 0.2% selected polysaccharide and 50 mM pH8 Tris HCl buffer. 10 μL of ChABC with activity of about 100 U/L was incubated at 37° C. for at least 3 minutes. After incubation, the two solutions were gently mixed. The mixture was then incubated at 37° C. for 20 minutes to perform enzymatic degradation of chondroitin sulfate. After 20 minutes, the reaction was terminated by inactivating ChABC by heating at 100° C. for 2 minutes. In addition to inactivating the mixture immediately without incubation for 20 minutes, a blank control was performed in the same manner. The absorbance of the heat inactivated solution at 232 nm was then measured and the apparent activity was calculated as shown in Equation 1. The assay in the absence of selected polysaccharide was also conducted in the same manner as a reference.
[formula] • where • Abs=Difference in absorbance • =OD232nm in sample tubes−OD232nm in blank tubes • E=Millimolar extinction coefficient of unsaturated disaccharides from Chondroitin Sulfate C=5.5 • t=Reaction time=20 min • Vt=Total volume of the assay=0.5 mL • Vs=Volume of enzyme used=0.01 mL • DF=Dilution factor • 1000=Convert U/mL to U/L
[formula] • where • % rA=percentage of residual activity • A(poly)=the activity presence of selected polysaccharide • A(ref)=the […] of the assay without the presence of selected polysaccharide

T1 sequence (P59807 25-1021 L125P): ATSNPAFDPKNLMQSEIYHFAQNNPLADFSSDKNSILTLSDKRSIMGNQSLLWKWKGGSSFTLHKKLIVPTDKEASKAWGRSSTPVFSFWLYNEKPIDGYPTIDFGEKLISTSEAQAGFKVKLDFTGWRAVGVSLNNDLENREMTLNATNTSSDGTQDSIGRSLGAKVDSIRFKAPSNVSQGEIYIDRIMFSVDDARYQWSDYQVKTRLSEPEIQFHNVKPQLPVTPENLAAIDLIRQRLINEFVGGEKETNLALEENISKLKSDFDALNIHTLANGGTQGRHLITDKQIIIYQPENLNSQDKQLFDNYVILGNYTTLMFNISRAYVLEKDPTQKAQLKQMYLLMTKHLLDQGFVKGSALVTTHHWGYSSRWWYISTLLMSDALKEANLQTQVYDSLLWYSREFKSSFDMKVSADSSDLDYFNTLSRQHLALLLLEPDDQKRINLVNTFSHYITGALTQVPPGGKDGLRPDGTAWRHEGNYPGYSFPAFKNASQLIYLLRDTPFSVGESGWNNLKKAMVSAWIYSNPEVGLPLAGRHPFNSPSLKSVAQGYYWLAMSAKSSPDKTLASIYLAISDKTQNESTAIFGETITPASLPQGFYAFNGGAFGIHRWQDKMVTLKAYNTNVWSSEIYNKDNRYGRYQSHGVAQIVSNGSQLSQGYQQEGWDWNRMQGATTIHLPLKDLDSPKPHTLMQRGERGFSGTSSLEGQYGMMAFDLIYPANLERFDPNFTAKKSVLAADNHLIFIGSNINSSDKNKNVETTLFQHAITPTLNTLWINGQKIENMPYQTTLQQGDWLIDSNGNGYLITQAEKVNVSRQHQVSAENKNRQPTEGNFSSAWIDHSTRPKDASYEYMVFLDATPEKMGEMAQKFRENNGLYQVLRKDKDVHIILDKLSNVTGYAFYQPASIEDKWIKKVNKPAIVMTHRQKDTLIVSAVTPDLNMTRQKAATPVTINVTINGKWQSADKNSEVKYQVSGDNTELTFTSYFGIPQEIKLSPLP

Substance	susceptibility to enzymatic degradation by ChABC [1]	Activity (apparent ChABC activity in presence of selected polysaccharide) [2]	% rA (percentage of residual activity) [2]	effect on ChABC enzyme activity (in words) [2]
heparin	not subject to the enzymatic degradation activity of ChABC	5.1 U/L	4.2%	almost completely inhibited ChABC activity; also recorded: strongest inhibitory effect on ChABC
Alginic acid		119 U/L	98%	no significant effect on enzyme activity
polygalacturonic acid		117 U/L	97%	no significant effect on enzyme activity
